In PubChem BioAssay (NCI):
Where “and” joins values, the source holds several entries; their conditions need not be identical. Equal entries are not always repeated.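 Method: 48-hour compound exposure of cells in 96-well plates, five concentrations, linear interpolation of endpoints. GI50 = concentration required for 50% inhibition of growth. TGI is the concentration that stops growth completely.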

Legend:
Assay in all cases: NCI-60 cell line screen, 48 h
ACHN renal = tested on: ACHN renal
HOP-92 NSCLC = tested on: HOP-92 NSCLC
A498 renal = tested on: A498 renal
HT29 colon = tested on: HT29 colon
SK-MEL-28 melanoma = tested on: SK-MEL-28 melanoma
CCRF-CEM leukemia = tested on: CCRF-CEM leukemia
RPMI-8226 leukemia = tested on: RPMI-8226 leukemia
M14 melanoma = tested on: M14 melanoma
UACC-257 melanoma = tested on: UACC-257 melanoma
MDA-MB-435 = tested on: MDA-MB-435
K-562 leukemia = tested on: K-562 leukemia
SW-620 colon = tested on: SW-620 colon
SF-268 CNS = tested on: SF-268 CNS
SNB-19 CNS = tested on: SNB-19 CNS
DU-145 prostate = tested on: DU-145 prostate
T-47D breast = tested on: T-47D breast
NCI-H460 lung = tested on: NCI-H460 lung
HCC-2998 colon = tested on: HCC-2998 colon
OVCAR-3 ovarian = tested on: OVCAR-3 ovarian
MCF7 breast = tested on: MCF7 breast
COLO 205 colon = tested on: COLO 205 colon
NCI-H522 lung = tested on: NCI-H522 lung
SN12C renal = tested on: SN12C renal
HL-60(TB) leukemia = tested on: HL-60(TB) leukemia
UO-31 renal = tested on: UO-31 renal
TK-10 renal = tested on: TK-10 renal
RXF 393 renal = tested on: RXF 393 renal
EKVX NSCLC = tested on: EKVX NSCLC
MDA-MB-231 breast = tested on: MDA-MB-231 breast
OVCAR-5 ovarian = tested on: OVCAR-5 ovarian
SK-OV-3 ovarian = tested on: SK-OV-3 ovarian
NCI/ADR-RES ovarian = tested on: NCI/ADR-RES ovarian
LOX IMVI melanoma = tested on: LOX IMVI melanoma
786-0 renal = tested on: 786-0 renal
SNB-75 CNS = tested on: SNB-75 CNS
NCI-H23 lung = tested on: NCI-H23 lung
UACC-62 melanoma = tested on: UACC-62 melanoma
SF-295 CNS = tested on: SF-295 CNS
HS 578T breast = tested on: HS 578T breast
KM12 colon = tested on: KM12 colon
IGROV1 ovarian = tested on: IGROV1 ovarian
HCT-15 colon = tested on: HCT-15 colon
SK-MEL-2 melanoma = tested on: SK-MEL-2 melanoma
U251 CNS = tested on: U251 CNS
A549 NSCLC = tested on: A549 NSCLC
MOLT-4 leukemia = tested on: MOLT-4 leukemia
SK-MEL-5 melanoma = tested on: SK-MEL-5 melanoma
SF-539 CNS = tested on: SF-539 CNS
HOP-62 NSCLC = tested on: HOP-62 NSCLC
OVCAR-4 ovarian = tested on: OVCAR-4 ovarian
BT-549 breast = tested on: BT-549 breast
PC-3 prostate = tested on: PC-3 prostate
OVCAR-8 ovarian = tested on: OVCAR-8 ovarian
MALME-3M melanoma = tested on: MALME-3M melanoma
HCT-116 colon = tested on: HCT-116 colon
SR leukemia = tested on: SR leukemia
NCI-H226 lung = tested on: NCI-H226 lung
CAKI-1 renal = tested on: CAKI-1 renal

## CNS(=O)(=O)Nc1nccc(Cc2c(C)c3ccc(Oc4ncccn4)cc3oc2=O)c1F
ACHN renal
  GI50: 4920 nM and > 2210 nM
  TGI: > 100000 nM
HOP-92 NSCLC
  GI50: < 15.2 nM and 61.3 nM
  TGI: 406 nM and 1930 nM
A498 renal
  GI50: 42.4 nM and 45.9 nM
  TGI: 1380 nM and 531 nM
HT29 colon
  GI50: 27.8 nM and 23.1 nM
  TGI: > 100000 nM
SK-MEL-28 melanoma
  GI50: 23.4 nM and 5.49 nM
CCRF-CEM leukemia
  GI50: > 100000 nM
  TGI: > 100000 nM
RPMI-8226 leukemia
  GI50: 12300 nM and > 9210 nM
  TGI: > 100000 nM
M14 melanoma
  GI50: 11.6 nM and 11.3 nM
  TGI: 1630 nM and > 10000 nM
UACC-257 melanoma
  GI50: 15.3 nM and 11.6 nM
  TGI: 86.6 nM and 78.4 nM
MDA-MB-435
  GI50: 52.6 nM and 39.5 nM
  TGI: > 100000 nM
K-562 leukemia
  GI50: 2210 nM and 1620 nM
  TGI: > 100000 nM
SW-620 colon
  GI50: 19.4 nM and 15.9 nM
  TGI: > 100000 nM
SF-268 CNS
  GI50: > 86000 nM
  TGI: > 100000 nM
SNB-19 CNS
  GI50: > 48400 nM
  TGI: > 100000 nM
DU-145 prostate
  GI50: 39000 nM and > 10000 nM
  TGI: > 100000 nM
T-47D breast
  GI50: 16100 nM and > 10000 nM
  TGI: > 100000 nM
NCI-H460 lung
  GI50: > 62000 nM
  TGI: > 100000 nM
HCC-2998 colon
  GI50: 20.9 nM and 8.69 nM
  TGI: > 10000 nM
OVCAR-3 ovarian
  GI50: 24500 nM and > 10000 nM
  TGI: > 100000 nM
MCF7 breast
  GI50: 57000 nM and > 10000 nM
  TGI: > 100000 nM
COLO 205 colon
  GI50: 17.6 nM and 7.03 nM
  TGI: > 100000 nM
NCI-H522 lung
  GI50: 22300 nM and > 10000 nM
  TGI: > 100000 nM
SN12C renal
  GI50: 13100 nM and > 8080 nM
  TGI: > 100000 nM
HL-60(TB) leukemia
  GI50: 44.9 nM and 8.91 nM
  TGI: > 100000 nM
UO-31 renal
  TGI: > 100000 nM
TK-10 renal
  GI50: 184 nM and 84.1 nM
  TGI: > 100000 nM
RXF 393 renal
  GI50: 4990 nM and 3020 nM
  TGI: > 100000 nM
EKVX NSCLC
  GI50: 438 nM and 351 nM
  TGI: > 100000 nM
MDA-MB-231 breast
  GI50: 549 nM and 313 nM
  TGI: > 100000 nM
OVCAR-5 ovarian
  GI50: 22.3 nM and 14.5 nM
  TGI: > 100000 nM
SK-OV-3 ovarian
  TGI: > 100000 nM
NCI/ADR-RES ovarian
  GI50: 20200 nM and > 10000 nM
  TGI: > 100000 nM
LOX IMVI melanoma
  GI50: 356 nM and 977 nM
  TGI: > 100000 nM
786-0 renal
  GI50: > 85900 nM
  TGI: > 100000 nM
SNB-75 CNS
  GI50: > 58900 nM
  TGI: > 100000 nM
NCI-H23 lung
  GI50: 61 nM and 148 nM
  TGI: > 100000 nM
UACC-62 melanoma
  GI50: < 10.5 nM and 2.77 nM
  TGI: 94.1 nM
SF-295 CNS
  GI50: 27800 nM and > 10000 nM
  TGI: > 100000 nM
HS 578T breast
  GI50: > 100000 nM
  TGI: > 100000 nM
KM12 colon
  GI50: 467 nM and 367 nM
  TGI: > 100000 nM
IGROV1 ovarian
  GI50: 938 nM and 95.5 nM
  TGI: > 100000 nM
HCT-15 colon
  GI50: > 25700 nM
  TGI: > 100000 nM
SK-MEL-2 melanoma
  GI50: < 10 nM and 8.79 nM
  TGI: > 100000 nM
U251 CNS
  GI50: 17400 nM and > 10000 nM
  TGI: > 100000 nM
A549 NSCLC
  GI50: 674 nM and 1080 nM
  TGI: > 100000 nM
MOLT-4 leukemia
  GI50: 53400 nM and > 10000 nM
  TGI: > 100000 nM
SK-MEL-5 melanoma
  GI50: 153 nM and 926 nM
  TGI: 17400 nM and > 10000 nM
SF-539 CNS
  GI50: 61500 nM and > 10000 nM
  TGI: > 100000 nM
HOP-62 NSCLC
  TGI: > 100000 nM
OVCAR-4 ovarian
  GI50: 4330 nM and > 5620 nM
  TGI: > 100000 nM
BT-549 breast
  GI50: 24200 nM and > 10000 nM
  TGI: > 100000 nM
PC-3 prostate
  GI50: > 100000 nM
  TGI: > 100000 nM
OVCAR-8 ovarian
  GI50: 33800 nM and > 10000 nM
  TGI: > 100000 nM
MALME-3M melanoma
  GI50: < 10 nM and 2.11 nM
  TGI: 40.1 nM and 21.7 nM
HCT-116 colon
  GI50: 70 nM and 103 nM
  TGI: > 100000 nM
SR leukemia
  GI50: > 100000 nM
  TGI: > 100000 nM
NCI-H226 lung
  GI50: 6820 nM and > 10000 nM
  TGI: > 100000 nM
CAKI-1 renal
  GI50: 1340 nM
  TGI: > 100000 nM
